# Assay results: PubChem BioAssay AID1963868 (Molecular Pharmacology Branch, DTP, NCI, 2024)
# System: KRAS PDC tumor spheroids (HUVEC+MSC), viability
# Test: Anticancer human tumor 254851-301-R-J1-PDC patient-derived colon carcinoma cell line growth inhibition [KRAS2]
# Conditions: for viability, T/C: stronger effect = lower value
# Source text: Multicellular complex tumor spheroid response to RAS pathway inhibitors in combination with a targeted agents in patient-derived cell lines with oncogenic KRAS variants from multiple cancer types
# A high-throughput screen of multi-cell type tumor spheroids was designed to identify active combinations of targeted small molecules and KRAS pathway inhibitors. Complex spheroids include a stromal component modeled by human endothelial cells (HUVEC) and fibroblasts modeled by human mesenchymal stem cells (MSCs). The concentration ranges selected for each drug and investigational agent were based upon clinically achievable concentrations if the clinical Cmax of the agent was known.
# Compounds. The drugs and investigational agents: BI-3406 (NSC825286), BAY-293 (NSC824723), batoprotafib (TNO155; NSC825523), sotorasib (AMG 510; NSC818433), MRTX1257 (NSC819558), elimusertib (BAY 1895344; NSC800525), molibresib (GSK525762; NSC774829), temuterkib (LY3214996; NSC803410), venetoclax (NSC766270), alisertib (NSC759677), olaparib (NSC753686), talazoparib (NSC767125), erdafitinib (NSC781556), ipatasertib (NSC767898), cabozantinib (NSC761068), nintedanib (NSC756659), abemaciclib (NSC768073), docetaxel (NSC628503), trametinib (NSC758246), and sapanisertib (NSC764658) were obtained from the National Cancer Institute (NCI) Developmental Therapeutics Program Chemical Repository. The FDA-approved anticancer drug set is available from the Developmental Therapeutics Program. […] The stock solutions were prepared in dimethyl sulfoxide (DMSO, Sigma-Aldrich, St. Louis, MO, cat. D2650) at 800-fold the tested concentration and stored at -70 degrees C prior to their use. All drugs and investigational agents were tested over a range starting from a high concentration at or near the clinical Cmax and decreasing in half-log increments. If the clinical Cmax for an agent had not been determined, the highest concentration tested was 10 microM.
# Cell Culture. All cells were maintained in an incubator at 37 degrees C and 5% CO2 with 95% humidity. The PDC lines were cultured according to standard operating procedures established by the NCI PDMR (https://pdmr.cancer.gov/sops/default.htm). Briefly, all PDCs were thawed and cultured in Matrigel-coated flasks prepared with a working solution of 1X Ham's F-12 nutrient mix, without supplementation (Invitrogen, Waltham, MA, cat. 11765054), 100 U/mL penicillin-streptomycin (Invitrogen, cat. 15140122), and 2.5% Matrigel (Corning Inc., Corning, NY, cat. 354248) for the first three passages. All PDCs were cultured in complete DMEM/F-12 media containing advanced DMEM/F-12 (Invitrogen, cat. 12634028), 4.9% defined fetal bovine serum, heat inactivated (HyClone Laboratories Inc., Logan, UT, cat. SH30070.03HI), 389 ng/mL hydrocortisone (Sigma-Aldrich, cat. H4001), 9.7 ng/mL human EGF recombinant protein (Invitrogen, cat. PHG0313), 23.4 microg/mL adenine (Sigma-Aldrich, cat. A2786), 97.3 U/mL penicillin-streptomycin (Invitrogen, cat. 15140122), 1.9 mM L-glutamine (Invitrogen, cat. 25030081), and 9.7 microM Y-27632 dihydrochloride (Tocris Bioscience, Bristol, United Kingdom, cat. 1254). The PDCs were cultured in complete DMEM/F12 media without 9.7 microM Y-27632 dihydrochloride for at least two passages prior to the screen. The established cell line HOP-62 was cultured in RPMI 1640 medium, HEPES (Invitrogen, cat. 22400105) with 10% defined fetal bovine serum (HyClone Laboratories Inc., cat. SH30070.03) and 2 mM L-glutamine (Invitrogen, cat. 25030081). The pooled donor HUVEC were cultured in endothelial cell growth medium 2 (PromoCell, Heidelberg, Germany, cat. C-22011) and the hMSC were cultured in mesenchymal stem cell growth medium 2 (PromoCell, cat. C-28009). For all experiments, HUVEC and hMSC were used at passages </=5, while the malignant cell lines were used at passages </=15. […]
# [1] = curve of first compound, second compound 0.1 µM
# [2] = curve of first compound, second compound 0.316 µM
# [3] = curve of first compound, second compound 1 µM
# [4] = curve of first compound, second compound 3.16 µM
# [5] = curve of first compound, second compound 10 µM
# [6] = second compound 0.1 µM, first compound 0.01 µM
# [7] = second compound 0.1 µM, first compound 0.0316 µM
# [8] = second compound 0.1 µM, first compound 0.1 µM
# [9] = second compound 0.316 µM, first compound 0.01 µM
# [10] = second compound 0.316 µM, first compound 0.0316 µM
# [11] = second compound 0.316 µM, first compound 0.1 µM
# [12] = second compound 1 µM, first compound 0.01 µM
# [13] = second compound 1 µM, first compound 0.0316 µM
# [14] = second compound 1 µM, first compound 0.1 µM
# [15] = second compound 3.16 µM, first compound 0.01 µM
# [16] = second compound 3.16 µM, first compound 0.0316 µM
# [17] = second compound 3.16 µM, first compound 0.1 µM
# [18] = second compound 10 µM, first compound 0.01 µM
# [19] = second compound 10 µM, first compound 0.0316 µM
# [20] = second compound 10 µM, first compound 0.1 µM
# [21] = second compound 0.1 µM, first compound 0.316 µM
# [22] = second compound 0.1 µM, first compound 1 µM
# [23] = second compound 0.1 µM, first compound 3.16 µM
# [24] = second compound 0.316 µM, first compound 0.316 µM
# [25] = second compound 0.316 µM, first compound 1 µM
# [26] = second compound 0.316 µM, first compound 3.16 µM
# [27] = second compound 1 µM, first compound 0.316 µM
# [28] = second compound 1 µM, first compound 1 µM
# [29] = second compound 1 µM, first compound 3.16 µM
# [30] = second compound 3.16 µM, first compound 0.316 µM
# [31] = second compound 3.16 µM, first compound 1 µM
# [32] = second compound 3.16 µM, first compound 3.16 µM
# [33] = second compound 10 µM, first compound 0.316 µM
# [34] = second compound 10 µM, first compound 1 µM
# [35] = second compound 10 µM, first compound 3.16 µM
# 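Further: spheroids exposed to compounds for seven days before readout.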
# 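Wherever viability, T/C is given: 100% = DMSO vehicle control luminescence of the spheroids.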
compound,measurement,setting,value
CN(C)C/C=C/C(=O)Nc1cc2c(Nc3ccc(F)c(Cl)c3)ncnc2cc1O[C@H]1CCOC1 + CC1OCC2(CCN(c3cnc(Sc4ccnc(N)c4Cl)c(N)n3)CC2)C1N,IC50,[1],> 100 nM
same,IC50,[2],> 100 nM
same,IC50,[3],> 100 nM
same,IC50,[4],> 100 nM
same,IC50,[5],63.1 nM
same,"viability, T/C","second compound 0.1 µM, first compound 0.000316 µM",105%
same,"viability, T/C","second compound 0.1 µM, first compound 0.001 µM",106%
same,"viability, T/C","second compound 0.1 µM, first compound 0.00316 µM",92.8%
same,"viability, T/C",[6],90.2%
same,"viability, T/C",[7],84.5%
same,"viability, T/C",[8],65.2%
same,"viability, T/C","second compound 0.316 µM, first compound 0.000316 µM",94.5%
same,"viability, T/C","second compound 0.316 µM, first compound 0.001 µM",84.3%
same,"viability, T/C","second compound 0.316 µM, first compound 0.00316 µM",82.8%
same,"viability, T/C",[9],80.2%
same,"viability, T/C",[10],83.4%
same,"viability, T/C",[11],68%
same,"viability, T/C","second compound 1 µM, first compound 0.000316 µM",95.9%
same,"viability, T/C","second compound 1 µM, first compound 0.001 µM",84.2%
same,"viability, T/C","second compound 1 µM, first compound 0.00316 µM",88.1%
same,"viability, T/C",[12],91.8%
same,"viability, T/C",[13],79.8%
same,"viability, T/C",[14],75.8%
same,"viability, T/C","second compound 3.16 µM, first compound 0.000316 µM",67.6%
same,"viability, T/C","second compound 3.16 µM, first compound 0.001 µM",64.1%
same,"viability, T/C","second compound 3.16 µM, first compound 0.00316 µM",62.8%
same,"viability, T/C",[15],60.4%
same,"viability, T/C",[16],59%
same,"viability, T/C",[17],51.6%
same,"viability, T/C","second compound 10 µM, first compound 0.000316 µM",85.5%
same,"viability, T/C","second compound 10 µM, first compound 0.001 µM",97.7%
same,"viability, T/C","second compound 10 µM, first compound 0.00316 µM",66.9%
same,"viability, T/C",[18],81.5%
same,"viability, T/C",[19],51.6%
same,"viability, T/C",[20],46.8%
CC(=O)OC12COC1CC(O)C1(C)C(=O)C(O)C3=C(C)C(OC(=O)C(O)C(NC(=O)OC(C)(C)C)c4ccccc4)CC(O)(C(OC(=O)c4ccccc4)C21)C3(C)C (configuration not stated) + CNCc1ccccc1-c1csc(C(C)Nc2nc(C)nc3cc(OC)c(OC)cc23)c1,IC50,[1],176 nM
same,IC50,[2],126 nM
same,IC50,[3],184 nM
same,IC50,[4],22.7 nM
same,IC50,[5],< 10 nM
same,"viability, T/C",[6],101%
same,"viability, T/C",[7],86.3%
same,"viability, T/C",[8],62.6%
same,"viability, T/C",[21],37.7%
same,"viability, T/C",[22],26.1%
same,"viability, T/C",[23],25.3%
same,"viability, T/C",[9],90%
same,"viability, T/C",[10],79.9%
same,"viability, T/C",[11],55.7%
same,"viability, T/C",[24],30.4%
same,"viability, T/C",[25],25.5%
same,"viability, T/C",[26],25.4%
same,"viability, T/C",[12],81.3%
same,"viability, T/C",[13],80.5%
same,"viability, T/C",[14],61.5%
same,"viability, T/C",[27],39.8%
same,"viability, T/C",[28],25.3%
same,"viability, T/C",[29],24%
same,"viability, T/C",[15],77%
same,"viability, T/C",[16],38.9%
same,"viability, T/C",[17],9.76%
same,"viability, T/C",[30],13.6%
same,"viability, T/C",[31],0.92%
same,"viability, T/C",[32],23.3%
same,"viability, T/C",[18],1.07%
same,"viability, T/C",[19],0.14%
same,"viability, T/C",[20],1.91%
same,"viability, T/C",[33],0.55%
same,"viability, T/C",[34],24.2%
same,"viability, T/C",[35],0.21%
Cn1nccc1Nc1nccc(-c2cc3c(s2)C(C)(C)N(CCN2CCOCC2)C3=O)n1,"viability, T/C",compound 0.0316 µM,92.9% [middle of 5 runs]
same,"viability, T/C",compound 0.1 µM,98.1% [middle of 5 runs]
same,"viability, T/C",compound 0.316 µM,102% [middle of 5 runs]
same,"viability, T/C",compound 1 µM,89.6% [middle of 5 runs]
same,"viability, T/C",compound 3.16 µM,51.9% [middle of 5 runs]
same,"viability, T/C",compound 10 µM,4.24% [middle of 5 runs]
same,IC50,curve of compound,3.28 µM [middle of 5 runs]
O=C(c1cc(Cc2n[nH]c(=O)c3ccccc23)ccc1F)N1CCN(C(=O)C2CC2)CC1 + COc1cc2nc(C)nc(NC(C)c3cc(N)cc(C(F)(F)F)c3)c2cc1OC1CCOC1,IC50,[1],> 10000 nM
same,IC50,[2],> 10000 nM
same,IC50,[3],> 10000 nM
same,IC50,[4],> 10000 nM
same,IC50,[5],> 10000 nM
same,"viability, T/C",[7],111%
same,"viability, T/C",[8],94.5%
same,"viability, T/C",[21],98.5%
same,"viability, T/C",[22],91.8%
same,"viability, T/C",[23],101%
same,"viability, T/C","second compound 0.1 µM, first compound 10 µM",97.2%
same,"viability, T/C",[10],94.5%
same,"viability, T/C",[11],103%
same,"viability, T/C",[24],95.1%
same,"viability, T/C",[25],96.1%
same,"viability, T/C",[26],96.4%
same,"viability, T/C","second compound 0.316 µM, first compound 10 µM",104%
same,"viability, T/C",[13],101%
same,"viability, T/C",[14],108%
same,"viability, T/C",[27],101%
same,"viability, T/C",[28],101%
same,"viability, T/C",[29],98.1%
same,"viability, T/C","second compound 1 µM, first compound 10 µM",98.2%
same,"viability, T/C",[16],94.9%
same,"viability, T/C",[17],89.8%
same,"viability, T/C",[30],89.5%
same,"viability, T/C",[31],95.2%
same,"viability, T/C",[32],90.4%
same,"viability, T/C","second compound 3.16 µM, first compound 10 µM",87.3%
same,"viability, T/C",[19],94.9%
same,"viability, T/C",[20],90%
same,"viability, T/C",[33],91%
same,"viability, T/C",[34],82.7%
same,"viability, T/C",[35],76.2%
same,"viability, T/C","second compound 10 µM, first compound 10 µM",78%
